The subject of one assay is DC2.4 dendritic cells. To be noted: cited from earlier work; for expression of CD80/CD86: liposomes, DC2.4 cells; for ability to stimulate the expression of CD 80 on DC 2.4 cells (relative potency): comparison by head group and acyl chain.
The test system of another assay is TC-1 HPV-positive tumors. Description: TC-1 HPV-positive tumor growth in mice treated with cationic lipid/E7 compositions. The assay is classed as in vivo. The conditions noted are these: for ability to eradicate HPV-E7 positive tumors in tumor-bearing mice (tumor regression): lipid/E7 formulations, multiple lipid doses, summary statements. As to the method: TC-1 cells are C57BL/6 mouse lung […] cells that have been transformed with the HPV16 E6 and E7 oncogenes and activated H-ras. Cells were grown in RPMI medium (commercially available from Invitrogen of Carlsbad, CA) supplemented with 10% fetal bovine serum and 100 U/ml penicillin, and […] streptomycin. The MHC class I restricted peptide from the HPV 16 E7 protein (amino acid 11 to 20, YMLDLQPETT [SEQ. ID. NO. 1]) was synthesized by the University of Pittsburgh Peptide Synthesis Facility by solid state synthesis using an Advanced ChemTech model 200 peptide synthesizer and purified by HPLC.
In FIG. 12, mice were subcutaneously injected with TC-1 cells on day 0 in order to induce the growth of HPV-positive tumors. The DOTAP/E7 compositions were comprised of racemic mixtures of DOTAP. The mice received DOTAP/E7 compositions containing 10 μg E7 peptide subcutaneously on the opposite side of the abdomen on day 6.
In FIGS. 13 and 14, mice were subcutaneously injected with TC-1 cells on day 0 in order to induce the growth of HPV-positive tumors. The mice received R and S-DOTAP/E7 compositions containing 20 μg E7 peptide subcutaneously on the opposite side of the abdomen on day 6. R or S-DOTAP lipid concentrations in the complex varied from 3 to 600 nmole (3, 15, 30, 75, 100, 125, 150, 300, and 600 nmole).

The test system of a further assay is purified human T-cells. As to the kind of experiment: Induction of human T-cell proliferation by R and S enantiomers of DOTAP. The assay is classed as cell-based. From the text:
In the present studies, the induction of human T-cell proliferation by the R and S enantiomers of DOTAP was investigated and confirmed using purified T-cells obtained from Lonza, MA.

Assay [1] concerns Human HLA-A2 dendritic cells. Description: Chemokine and cytokine production by human dendritic cells (Searchlight Protein Array Multiplex ELISA). It counts as cell-based. To be noted: 40 micromolar complex. The protocol: Human HLA-A2 dendritic cells (Lonza, Walkersville, MD), were treated and grown in culture as described above. On day 3 the cells were treated with 40 micromolar DOTAP/E7 complex or the potent immunostimulator lipopolysaccharide (LPS) at 50 micromolar concentrations (positive control). Medium from assay wells was removed and centrifuged at 1300 rpm in a microfuge for 5 minutes to pellet unattached dendritic cells. The supernatants were removed and treated with 10 microliters per ml of Calbiochem (La Jolla, CA) protease inhibitor cocktail set I (Cat. No. 539131) and stored frozen prior to analysis. Samples were analyzed for chemokine and cytokine expression by Searchlight Protein Array Multiplex ELISA assay [Pierce Biotechnology (Woburn, MA)].
(In general: In an ELISA, binding on a coated surface is turned into a signal by an enzyme label.)

Another assay relates to human T lymphocytes. To be noted: cited from earlier work.
Setting [2] is: lipid 600 nmole with 20 μg E7 peptide, s.c. day 6 (S-DOTAP P<0.05).

As to `CCCCCCCCCCCCCCOC(=O)CC[C@H](NC(=O)[C@@H](N)CCCCN)C(=O)OCCCCCCCCCCCCCC` [DMKD, O,O′-dimyristyl-N-lysyl-glutamate], the “expression of CD80/CD86” value in the assay with DC2.4 dendritic cells is recorded as “strongly stimulated”.
As for `CCCCCCCC/C=C\CCCCCCCC(=O)OC[C@@H](COP(=O)(OCC)OCC[N+](C)(C)C)OC(=O)CCCCCCC/C=C\CCCCCCCC` (stereo partly drawn) [DOEPC-18:1, 1,2-dioleoyl-sn-glycero-3-ethylphosphocholine], the “ability to stimulate the expression of CD 80 on DC 2.4 cells (relative potency)” value (“ability … (relative potency)” below) in the assay with DC2.4 dendritic cells is given as “more potent”.
For the compound `CCCCCCCCCCCC(=O)OC[C@H](COP(=O)(OCC)OCC[N+](C)(C)C)OC(=O)CCCCCCCCCCC` (stereo partly drawn) [DXEPC-12:0, 1,2-dilauroyl-sn-glycero-3-ethylphosphocholine], in the assay with DC2.4 dendritic cells, the “ability … (relative potency)” value is recorded as “more potent”.
“YMLDLQPETT (Human papillovirus subtype 16 E7 oncogene tumor-associated antigen MHC class I restricted peptide) [E7 peptide, ID; NO]”: the “inhibition of tumor growth” value in the assay on TC-1 HPV-positive tumors (peptide alone, no lipid (not shown)) is “did not show any inhibition of tumor growth”.
Regarding `CCCCCCCCCCCCCCOC(=O)C[C@H](NC(=O)[C@@H](N)CCCCN)C(=O)OCCCCCCCCCCCCCC` [DMKE, O,O′-dimyristyl-N-lysyl aspartate], the “expression of CD80/CD86” value in the assay with DC2.4 dendritic cells is listed as “strongly stimulated”.
For `CCCCCCCC/C=C\CCCCCCCC(=O)OC[C@@H](C[N+](C)(C)C)OC(=O)CCCCCCC/C=C\CCCCCCCC` [R-DOTAP, 1,2-dioleoyl-3-trimethylammoninum propane], the “tumor growth versus untreated control on day 23” value is on record as “most significant tumor regression efficacy” in the assay with TC-1 HPV-positive tumors (lipid 300 nmole with 20 μg E7 peptide, s.c. day 6, P<0.0001); “did not show significant anti-tumor activity” in the assay with TC-1 HPV-positive tumors (setting [2]); “partial tumor inhibition effect” in the assay with TC-1 HPV-positive tumors (lipid 75-150 nmole with 20 μg E7 peptide, s.c. day 6, P<0.001). Moreover, the “ability to eradicate HPV-E7 positive tumors in tumor-bearing mice (tumor regression)” value in the assay with TC-1 HPV-positive tumors is reported as “results in tumor regression”. For the same compound, the “induction of human T-cell proliferation” value in the assay with purified human T-cells was “induced more T-cell proliferation than S-DOTAP”. In assay [1], the “potency in inducing chemokine and cytokine production relative to DOTAP racemic mixture” value is “equivalent to or higher than”. Besides, the “potency in inducing chemokine and cytokine production, R versus S enantiomer” value in assay [1] is recorded as “more potent immune activator than S-DOTAP”; in assay [1] (listed as R-enantiomer), “higher potency”.
Take `CCCCCCCCCCCCCC(=O)OCC(COP(=O)(OCC)OCC[N+](C)(C)C)OC(=O)CCCCCCCCCCCCC` (stereo not drawn) [DMEPC-14:0, 1,2-dimyristoyl-sn-glycero-3-ethylphosphocholine]: the “ability … (relative potency)” value with DC2.4 dendritic cells is recorded as “more potent”.
In the case of `CCCCCCCC/C=C\CCCCCCCC(=O)OC[C@@H](C[N+](C)(C)C)OC(=O)CCCCCCC/C=C\CCCCCCCC` [DOTAP, 1,2-dioleoyl-3-trimethylammoninum propane], the “inhibition of tumor growth” value in the assay with TC-1 HPV-positive tumors (liposomes 100 nmole, without E7 peptide) was “did not show significant inhibition of tumor growth”. The “tumor growth versus untreated control on day 23” value in the assay on TC-1 HPV-positive tumors (racemic DOTAP 15 nmole with 10 μg E7 peptide, s.c. day 6, P<0.05) was “partial tumor inhibition effect”; in the assay with TC-1 HPV-positive tumors (racemic DOTAP 30 nmole with 10 μg E7 peptide, s.c. day 6, P<0.01), “enhanced efficacy”; in the assay with TC-1 HPV-positive tumors (racemic DOTAP 75 nmole with 10 μg E7 peptide, s.c. day 6, P<0.001) it was “most significant tumor regression effect”; with TC-1 HPV-positive tumors (racemic DOTAP 150 nmole with 10 μg E7 peptide, s.c. day 6, P<0.01), “enhanced efficacy”; in the assay with TC-1 HPV-positive tumors (racemic DOTAP 300 nmole with 10 μg E7 peptide, s.c. day 6, P<0.01), “enhanced efficacy”; with TC-1 HPV-positive tumors (racemic DOTAP 600 nmole with 10 μg E7 peptide, s.c. day 6) it was “did not show anti-tumor activity”. The “expansion of T cell colonies in culture” value in the assay on human T lymphocytes (HLA-A2+ donor lymphocytes, three stimulations at 7-day interval, three days after third, versus medium control) is listed as “extensive expansion of T cell colonies”. Also, the “ERK phosphorylation in T cells” value with human T lymphocytes is listed as “confirmed by ERK phosphorylation”. Moreover, the “expression of costimulatory molecule CD86 on human T lymphocytes” value with human T lymphocytes is on record as “induced expression of the costimulatory molecule, CD86”.
For the compound `CCCCCCCC/C=C\CCCCCCCC(=O)OC[C@@H](C[N+](C)(C)C)OC(=O)CCCCCCC/C=C\CCCCCCCC` [S-DOTAP, 1,2-dioleoyl-3-trimethylammoninum propane], in the assay with TC-1 HPV-positive tumors (setting [2]), the “tumor growth versus untreated control on day 23” value is “induced the slowest tumor growth”. Besides, in the assay on TC-1 HPV-positive tumors (lipid 3 to 600 nmole with 20 μg E7 peptide, s.c. day 6), the “tumor growth / tumor regression over the lipid dose series” value is “did not exhibit the ability to inhibit tumor growth and no tumor regression was observed”. Besides, the “ability to eradicate HPV-E7 positive tumors in tumor-bearing mice (tumor regression)” value with TC-1 HPV-positive tumors is on record as “only limited tumor regression”. The “dose range that effectively attenuates tumor growth” value in the assay on TC-1 HPV-positive tumors (rodent species, listed as S-enantiomer of DOTAP) is “effective over this same range of doses”. In addition, in the assay with purified human T-cells, the “induction of human T-cell proliferation” value is “confirmed”.
`CCCCCCCC/C=C\CCCCCCCC(=O)OC[C@H](COP(=O)(O)OCC(O)CO)OC(=O)CCCCCCC/C=C\CCCCCCCC` (stereo partly drawn) [DOPG, 1,2-dioleoyl-sn-glycero-3-phosphoglycerol]: the “inhibition of tumor growth” value in the assay with TC-1 HPV-positive tumors (anionic lipid liposomes 150 nmole with antigen) was “failed to significantly inhibit tumor growth”.
